These results are taken from US7981897B2, “Crystal form of (3-cyano-1H-Indo1-7-yl)-[4-(4-fluorophenethyl)piperazin-1-yl]methanone, hydrochloride” (Merck Patent GmbH, priority 2004, dated 2011).

For data set [1], the target named is T1, 5-HT2A receptor (Homo sapiens, UniProt P28223). The following applies: background statement, no values; cited from earlier work.
Data set [2] deals with T1, 5-HT2A receptor. The note with it: background statement, no values; cited from earlier work. This is another data set of the same source.
The nature of data set [3]: Stirring a suspension of form A in MTBE, form B estimated by X-ray powder diffraction. The class given is physicochemical.
Data set [4] in a line: Tabletting in a cam press: formation of form B under mechanical pressure, estimated by X-ray powder diffraction. The class given is physicochemical. Here is the method:
The pressures here are preferably those which usually prevail during tablet production if ram forces of between about 2 and 16 kN, in particular between 6 and 16 kN, are used as the maximum pressing forces.
In an EK0 cam press from Korsch (Berlin, Germany), year of construction 2002, tablets are produced at a rate of 50 units per minute using a 7 mm, round, flat ram with bevel.
The tablets contain 50 mg of EMD281014 in crystal form A, 93.2 mg of lactose monohydrate, 4.5 mg of croscarmellose and 2.3 mg of magnesium stearate. The ingredients are dry-mixed and compressed directly.
The proportion of form B is estimated by comparison of the X-ray powder diffraction patterns of the mixtures (FIGS. 3 and 4) with the diffraction patterns of the pure forms (FIGS. 1 and 2).

A short description of data set [5]: Storage of form B at elevated temperature, conversion into form A. The data set is classed as physicochemical. The note with it: storage at 105° C. for 24 hours. Here is the method: Furthermore, a very simple method for the preparation of form A from form B has been found. To this end, form B merely needs to be stored at elevated temperatures of between about 75 and about 225° C., preferably 90 and 160° C. and particularly preferably between 110 and 140° C. Depending on the temperature and the storage duration, different degrees of conversion can be achieved. Depending on the target degree of conversion, the storage duration at a given temperature can be between a few minutes and several days. In order to achieve high degrees of conversion, […] is preferably stored for from several hours to days. Suitable storage times are, for example, 4, 8, 12, 16, 20, 24, 36 or 48 hours.

The mark [6] stands for this setting: cam press, contact time 310 ms, maximum pressing force 16 kN.

T1 sequence (P28223 whole entry): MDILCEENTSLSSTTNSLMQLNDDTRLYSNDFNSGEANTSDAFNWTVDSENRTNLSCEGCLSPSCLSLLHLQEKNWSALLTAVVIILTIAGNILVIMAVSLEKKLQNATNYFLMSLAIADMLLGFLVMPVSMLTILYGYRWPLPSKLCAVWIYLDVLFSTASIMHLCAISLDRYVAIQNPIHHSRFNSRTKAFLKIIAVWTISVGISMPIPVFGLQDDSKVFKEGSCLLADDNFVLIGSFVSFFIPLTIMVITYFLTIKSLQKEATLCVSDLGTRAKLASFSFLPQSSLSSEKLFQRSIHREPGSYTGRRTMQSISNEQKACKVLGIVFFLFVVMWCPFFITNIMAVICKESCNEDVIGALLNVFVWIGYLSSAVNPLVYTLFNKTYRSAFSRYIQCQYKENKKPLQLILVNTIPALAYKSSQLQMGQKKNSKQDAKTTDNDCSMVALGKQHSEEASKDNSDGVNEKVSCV

As to `Cl.N#Cc1c[nH]c2c(C(=O)N3CCN(CCc4ccc(F)cc4)CC3)cccc12` [EMD281014, (3-cyano-1H-indol-7-yl)-[4-(4-fluorophenethyl)piperazin-1-yl]methanone, hydrochloride], on 5-HT2A receptor [1], the “affinity to 5-HT2A receptors” value is reported as “strong affinity”. Further, the 5-HT2A receptor-antagonistic properties on 5-HT2A receptor [2] is 5-HT2A receptor-antagonistic properties.

As for `Cl.N#Cc1c[nH]c2c(C(=O)N3CCN(CCc4ccc(F)cc4)CC3)cccc12` [EMD281014 form A, 7-{4-[2-(4-fluorophenyl)ethyl]-piperazine-1-carbonyl}-1H-indole-3-carbonitrile, hydrochloride], the “proportion of form B” value in data set [3] (250 mg in 5 ml MTBE, stirred 14 days at room temperature) was “about 30 % by weight”. Further, the “form B obtained in addition to form A” value in data set [3] (suspension in MTBE, room temperature, 14 days) is “about 30%”. For the same compound, in data set [4] (cam press, contact time 250 ms, maximum pressing force 6 kN), the “proportion of form B” value is given as “about 20%”. In data set [4] (setting [6]), the “proportion of form A in the mixture obtained” value is reported as about 75% and the “proportion of form B in the mixture obtained” value was “about 25%”.

Turning to `Cl.N#Cc1c[nH]c2c(C(=O)N3CCN(CCc4ccc(F)cc4)CC3)cccc12` [EMD281014 form B, (3-cyano-1H-indol-7-yl)-[4-(4-fluorophenethyl)piperazin-1-yl]methanone, hydrochloride], the “stability under the tablet production conditions” value in data set [4] (X-ray diffraction patterns of tablets produced from form B, no form A or further polymorphic forms unambiguously identified) is listed as “stable”. Besides, the “conversion of B into A” value in data set [5] was “complete conversion”.
